Four compounds from ChEMBL document CHEMBL1156029, “The discovery of thienopyridine analogues as potent IkappaB kinase beta inhibitors. Part II” (Bioorg Med Chem Lett, 2009) can be followed below.

For data set [1], the target named is Fibroblast growth factor receptor 3 (Homo sapiens, UniProt P22607). Description: Inhibition of FGFR3.
Data set [2] has as its target Hepatocyte growth factor receptor (Homo sapiens, UniProt P08581). Description: Inhibition of HGFR.
For data set [3], the target named is Insulin-like growth factor 1 receptor (Homo sapiens, UniProt P08069). Description: Inhibition of IGF1R.
The target of data set [4] is High affinity nerve growth factor receptor (Homo sapiens, UniProt P04629). The data set can be described thus: Inhibition of TrkA.
Data set [5] has as its system Mus musculus. The data set can be described thus: Inhibition of LPS-induced TNFalpha production in mouse at 100 mg/kg, po administered 60 mins before LPS challenge. It is filed as functional.
The test system of data set [6] is Mus musculus. Description: Inhibition of LPS-induced TNFalpha production in mouse at 10 mg/kg, po administered 60 mins before LPS challenge. It is filed as functional.
Data set [7] in a line: Plasma concentration in mouse at 30 mg/kg, po after 120 mins. The arrangement: dose 30 mg/kg, route oral. The format is ADME, organism-based.
Data set [8] is described as follows: Plasma concentration in mouse at 10 mg/kg, po after 120 mins. Also on record: dose 10 mg/kg, route oral. The format is ADME, organism-based.
Data set [9] concerns the target Dual specificity mitogen-activated protein kinase kinase 1 (Homo sapiens) (UniProt Q02750). The data set can be described thus: Inhibition of MKK1 at 10 uM.
Data set [10] can be described thus: Inhibition of JNK/SAPK1c at 10 uM.
Data set [11] has as its target Mitogen-activated protein kinase 11 (Homo sapiens) (UniProt Q15759). The data set can be described thus: Inhibition of p38beta2 at 10 uM.
Data set [12] has as its target Ribosomal protein S6 kinase alpha-1 (Homo sapiens) (UniProt Q15418). Description: Inhibition of MAPKAPK-1a at 10 uM.
Data set [13] can be described thus: Inhibition of PKA at 10 uM.
Data set [14] addresses T1, Serine/threonine-protein kinase Sgk1 (Homo sapiens) (UniProt O00141).
T1 sequence (whole entry): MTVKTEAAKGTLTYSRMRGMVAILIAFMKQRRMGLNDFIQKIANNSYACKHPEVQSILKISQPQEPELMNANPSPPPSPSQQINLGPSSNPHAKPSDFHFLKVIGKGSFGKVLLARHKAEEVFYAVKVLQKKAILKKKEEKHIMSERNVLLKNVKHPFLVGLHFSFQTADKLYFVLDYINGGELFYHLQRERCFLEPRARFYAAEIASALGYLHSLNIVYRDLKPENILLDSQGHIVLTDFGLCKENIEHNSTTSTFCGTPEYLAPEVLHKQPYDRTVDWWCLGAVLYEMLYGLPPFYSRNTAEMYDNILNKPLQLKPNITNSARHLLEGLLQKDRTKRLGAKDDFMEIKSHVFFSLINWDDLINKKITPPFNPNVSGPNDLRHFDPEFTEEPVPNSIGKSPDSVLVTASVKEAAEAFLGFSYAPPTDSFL
The data set can be described thus: Inhibition of SGK at 10 uM.

Data set [15] addresses Glycogen synthase kinase-3 beta (Homo sapiens) (UniProt P49841). Description: Inhibition of GSK3-beta at 10 uM.
Data set [16] is described as follows: Inhibition of CK2 at 10 uM.
In data set [17] the target is Tyrosine-protein kinase Lck (Homo sapiens) (UniProt P06239). The data set can be described thus: Inhibition of Lck at 10 uM.
For data set [18], the target named is Tyrosine-protein kinase CSK (Homo sapiens) (UniProt P41240). Description: Inhibition of CSK at 10 uM.
A short description of data set [19]: Inhibition of PP2a at 10 uM.
Data set [20] addresses Tyrosine-protein kinase BTK (Homo sapiens, UniProt Q06187). The data set can be described thus: Inhibition of Btk.
In the next data set the target is Ephrin type-A receptor 2 (Homo sapiens, UniProt P29317). The data set can be described thus: Inhibition of Eck.
Another data set deals with Insulin receptor (Homo sapiens, UniProt P06213). The data set can be described thus: Inhibition of IR.
Data set [21] has as its target Epidermal growth factor receptor (Homo sapiens, UniProt P00533).

Calls of active or inactive are those of the source. No cut-off for these calls is given here.

Hepatocyte growth factor receptor, sequence (P08581 whole entry): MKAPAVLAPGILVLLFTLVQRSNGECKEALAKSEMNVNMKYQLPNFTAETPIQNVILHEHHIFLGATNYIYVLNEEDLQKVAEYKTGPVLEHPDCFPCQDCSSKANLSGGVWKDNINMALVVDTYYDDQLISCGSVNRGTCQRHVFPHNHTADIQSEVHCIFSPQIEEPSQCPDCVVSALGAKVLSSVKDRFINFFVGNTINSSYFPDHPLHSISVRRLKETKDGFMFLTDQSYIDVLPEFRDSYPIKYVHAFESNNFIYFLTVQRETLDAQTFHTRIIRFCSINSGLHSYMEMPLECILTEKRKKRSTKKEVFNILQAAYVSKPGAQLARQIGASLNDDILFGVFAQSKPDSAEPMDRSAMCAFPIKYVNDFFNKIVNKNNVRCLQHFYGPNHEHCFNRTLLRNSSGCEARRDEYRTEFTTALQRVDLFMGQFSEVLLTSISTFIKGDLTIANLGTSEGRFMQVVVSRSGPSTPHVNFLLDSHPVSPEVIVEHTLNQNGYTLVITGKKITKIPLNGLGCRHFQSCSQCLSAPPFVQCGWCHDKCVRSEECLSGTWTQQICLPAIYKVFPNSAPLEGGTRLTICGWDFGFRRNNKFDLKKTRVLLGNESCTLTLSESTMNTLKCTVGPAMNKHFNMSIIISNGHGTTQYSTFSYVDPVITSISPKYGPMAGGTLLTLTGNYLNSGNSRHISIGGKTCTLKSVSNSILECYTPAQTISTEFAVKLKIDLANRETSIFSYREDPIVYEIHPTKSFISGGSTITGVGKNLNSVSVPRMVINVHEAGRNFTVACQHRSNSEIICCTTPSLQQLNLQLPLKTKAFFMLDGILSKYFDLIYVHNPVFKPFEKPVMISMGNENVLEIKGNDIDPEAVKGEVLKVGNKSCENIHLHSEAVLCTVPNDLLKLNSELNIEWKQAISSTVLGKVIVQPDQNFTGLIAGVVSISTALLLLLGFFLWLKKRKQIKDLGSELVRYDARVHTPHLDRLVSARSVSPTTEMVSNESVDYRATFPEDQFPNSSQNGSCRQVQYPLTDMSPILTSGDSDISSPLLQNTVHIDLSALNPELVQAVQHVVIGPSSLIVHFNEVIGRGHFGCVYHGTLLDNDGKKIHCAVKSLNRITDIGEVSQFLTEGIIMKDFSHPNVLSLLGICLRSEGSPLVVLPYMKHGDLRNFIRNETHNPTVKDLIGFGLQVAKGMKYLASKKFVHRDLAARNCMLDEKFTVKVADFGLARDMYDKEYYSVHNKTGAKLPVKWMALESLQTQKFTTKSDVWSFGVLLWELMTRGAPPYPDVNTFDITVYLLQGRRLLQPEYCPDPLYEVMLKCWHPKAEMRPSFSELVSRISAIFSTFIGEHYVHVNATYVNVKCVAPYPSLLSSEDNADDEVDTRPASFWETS
Insulin receptor, sequence (P06213 28-758 limits assumed): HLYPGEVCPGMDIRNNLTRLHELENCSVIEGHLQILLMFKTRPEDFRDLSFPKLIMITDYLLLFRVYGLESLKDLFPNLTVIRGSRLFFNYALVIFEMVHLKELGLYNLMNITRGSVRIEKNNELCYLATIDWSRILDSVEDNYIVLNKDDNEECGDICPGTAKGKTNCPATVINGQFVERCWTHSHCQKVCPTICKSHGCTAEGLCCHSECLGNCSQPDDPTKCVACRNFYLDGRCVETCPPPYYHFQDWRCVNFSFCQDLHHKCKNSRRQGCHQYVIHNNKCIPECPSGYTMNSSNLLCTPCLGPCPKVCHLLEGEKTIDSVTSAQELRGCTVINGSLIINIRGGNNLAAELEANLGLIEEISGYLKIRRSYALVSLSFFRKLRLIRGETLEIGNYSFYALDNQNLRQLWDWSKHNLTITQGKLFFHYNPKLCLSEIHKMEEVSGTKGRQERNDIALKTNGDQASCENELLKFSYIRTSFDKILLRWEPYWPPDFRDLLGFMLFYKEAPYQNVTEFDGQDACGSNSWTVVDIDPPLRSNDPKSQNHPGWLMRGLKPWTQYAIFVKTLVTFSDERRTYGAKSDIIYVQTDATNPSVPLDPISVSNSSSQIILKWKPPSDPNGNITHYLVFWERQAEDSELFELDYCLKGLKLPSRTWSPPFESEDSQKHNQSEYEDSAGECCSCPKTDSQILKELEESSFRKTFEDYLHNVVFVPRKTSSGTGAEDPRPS
Insulin receptor, sequence (P06213 763-1382 limits assumed): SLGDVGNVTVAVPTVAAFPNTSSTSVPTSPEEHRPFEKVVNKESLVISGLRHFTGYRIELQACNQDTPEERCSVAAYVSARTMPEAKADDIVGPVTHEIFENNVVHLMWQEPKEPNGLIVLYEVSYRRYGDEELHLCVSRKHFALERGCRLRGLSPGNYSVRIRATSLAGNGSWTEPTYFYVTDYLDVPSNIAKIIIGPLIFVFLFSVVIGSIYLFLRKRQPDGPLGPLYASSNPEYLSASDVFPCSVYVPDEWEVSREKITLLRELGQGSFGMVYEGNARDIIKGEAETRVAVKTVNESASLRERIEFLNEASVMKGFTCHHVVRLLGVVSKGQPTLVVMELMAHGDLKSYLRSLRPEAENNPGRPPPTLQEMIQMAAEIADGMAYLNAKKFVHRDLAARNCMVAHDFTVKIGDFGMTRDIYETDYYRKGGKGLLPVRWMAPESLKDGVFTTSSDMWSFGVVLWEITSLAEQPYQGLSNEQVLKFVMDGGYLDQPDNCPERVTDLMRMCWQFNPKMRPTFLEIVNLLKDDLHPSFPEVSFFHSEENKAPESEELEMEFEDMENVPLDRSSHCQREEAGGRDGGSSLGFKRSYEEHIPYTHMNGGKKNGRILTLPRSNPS
Tyrosine-protein kinase CSK (Homo sapiens), sequence (P41240 2-450 limits assumed): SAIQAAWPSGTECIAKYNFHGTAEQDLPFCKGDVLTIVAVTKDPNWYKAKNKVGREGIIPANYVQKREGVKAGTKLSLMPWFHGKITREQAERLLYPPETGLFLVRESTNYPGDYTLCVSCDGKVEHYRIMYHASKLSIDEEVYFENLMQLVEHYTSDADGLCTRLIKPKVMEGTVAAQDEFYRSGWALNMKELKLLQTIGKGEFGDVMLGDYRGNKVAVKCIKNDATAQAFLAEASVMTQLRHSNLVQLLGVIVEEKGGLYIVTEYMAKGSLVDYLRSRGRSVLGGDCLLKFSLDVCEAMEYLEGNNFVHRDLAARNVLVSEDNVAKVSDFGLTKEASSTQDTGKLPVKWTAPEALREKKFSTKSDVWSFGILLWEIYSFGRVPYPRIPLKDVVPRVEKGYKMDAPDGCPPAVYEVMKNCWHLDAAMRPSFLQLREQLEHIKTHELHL
Ephrin type-A receptor 2, sequence (P29317 whole entry): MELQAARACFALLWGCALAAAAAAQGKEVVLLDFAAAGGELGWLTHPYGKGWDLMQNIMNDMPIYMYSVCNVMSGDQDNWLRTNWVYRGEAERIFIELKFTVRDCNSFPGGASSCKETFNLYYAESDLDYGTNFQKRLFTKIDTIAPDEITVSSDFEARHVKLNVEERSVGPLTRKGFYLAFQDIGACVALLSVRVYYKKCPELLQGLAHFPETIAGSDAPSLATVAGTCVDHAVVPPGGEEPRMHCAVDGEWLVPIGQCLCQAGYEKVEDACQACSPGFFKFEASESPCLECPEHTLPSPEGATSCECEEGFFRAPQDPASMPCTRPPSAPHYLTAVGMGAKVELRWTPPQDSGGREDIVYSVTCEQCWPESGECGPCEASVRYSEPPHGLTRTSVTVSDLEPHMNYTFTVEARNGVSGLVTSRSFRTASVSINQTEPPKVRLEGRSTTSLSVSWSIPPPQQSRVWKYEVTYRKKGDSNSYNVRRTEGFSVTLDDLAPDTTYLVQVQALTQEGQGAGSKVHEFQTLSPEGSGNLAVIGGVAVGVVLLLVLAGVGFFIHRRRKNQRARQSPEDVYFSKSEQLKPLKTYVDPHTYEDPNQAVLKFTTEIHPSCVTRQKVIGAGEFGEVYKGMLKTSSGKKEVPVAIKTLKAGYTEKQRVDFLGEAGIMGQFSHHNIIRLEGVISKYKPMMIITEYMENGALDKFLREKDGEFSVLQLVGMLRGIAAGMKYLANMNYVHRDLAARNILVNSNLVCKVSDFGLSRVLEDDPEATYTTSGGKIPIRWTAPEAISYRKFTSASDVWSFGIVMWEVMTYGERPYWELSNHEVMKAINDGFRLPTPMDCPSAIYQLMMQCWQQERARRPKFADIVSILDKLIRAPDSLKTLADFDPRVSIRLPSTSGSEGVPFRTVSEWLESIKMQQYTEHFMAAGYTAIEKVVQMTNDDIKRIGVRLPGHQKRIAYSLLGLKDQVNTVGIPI
Tyrosine-protein kinase BTK, sequence (Q06187 whole entry): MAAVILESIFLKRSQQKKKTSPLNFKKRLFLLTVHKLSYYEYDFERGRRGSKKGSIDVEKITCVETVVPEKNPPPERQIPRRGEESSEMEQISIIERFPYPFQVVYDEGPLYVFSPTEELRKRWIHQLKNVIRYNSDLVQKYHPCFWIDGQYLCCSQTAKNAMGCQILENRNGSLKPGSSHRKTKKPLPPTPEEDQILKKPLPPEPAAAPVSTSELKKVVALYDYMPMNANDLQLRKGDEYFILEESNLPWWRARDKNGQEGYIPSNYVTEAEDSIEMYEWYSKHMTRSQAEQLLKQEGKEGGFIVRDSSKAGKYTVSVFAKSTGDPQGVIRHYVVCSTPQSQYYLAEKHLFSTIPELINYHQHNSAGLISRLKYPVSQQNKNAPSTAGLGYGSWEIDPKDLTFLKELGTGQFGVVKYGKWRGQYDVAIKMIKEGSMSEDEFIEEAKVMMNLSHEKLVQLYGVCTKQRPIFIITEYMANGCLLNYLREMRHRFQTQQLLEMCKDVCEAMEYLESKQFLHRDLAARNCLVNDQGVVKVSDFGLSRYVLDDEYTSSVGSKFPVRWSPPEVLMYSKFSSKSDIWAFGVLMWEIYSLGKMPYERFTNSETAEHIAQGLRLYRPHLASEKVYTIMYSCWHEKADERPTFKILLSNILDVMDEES

A word on the IC50: it is the concentration that gives 50% inhibition. Read a high IC50 as weaker potency. Broadly, the inhibition in vivo is how much of the control response was suppressed. Low readings indicate a response near the control, high ones a response far below the control. For `CCCc1cc(N2CCNCC2)nc2sc(C(N)=O)c(N)c12`, the IC50 (in data set [1]; in [2]; in data set [3]; in [4]; in [20]; on Ephrin type-A receptor 2) was over 7 µM in each case. For the same compound, at 100 mg/kg the inhibition in vivo with Mus musculus [5] was 74%. Also, in the data set on Mus musculus [6], testing at 10 mg/kg gave an inhibition in vivo of 12%. The concentration at 2 h in data set [7] and in data set [8] was under 10 nM throughout. Moreover, the outcome in data set [9], in data set [10], in data set [11], in [12], in data set [13] and in [14] was inactive. Moreover, the result in data set [15], in data set [16], in data set [17], in data set [18] and in [19] was inactive.

Consider `CCCc1cc(N2CCCC(O)C2)nc2sc(C(N)=O)c(N)c12` (stereo unspecified), for which the IC50 (in data set [1]; in data set [2]; in [3]; against Insulin receptor; in data set [4]; in [20]) was over 7 µM throughout. Also, the IC50 (on Ephrin type-A receptor 2; in [21]) was over 7 µM in each case. The compound further registered an inhibition in vivo at 100 mg/kg in the data set on Mus musculus [5] of 93%. This compound also yielded an inhibition in vivo at 10 mg/kg in the data set with Mus musculus [6] of 14%. Further, the results for the concentration at 2 h in [7] and in data set [8] were 3100 nM and 170 nM, respectively. Further, the result in [9], in data set [10], in data set [11], in data set [12], in data set [13] and in data set [14] was inactive. The outcome in [15], in data set [16], in data set [17], in [18] and in data set [19] was inactive.

For `CCCc1cc(N2CCC(N)CC2)nc2sc(C(N)=O)c(N)c12`, the half-inhibitory concentration (IC50) (in data set [1]; in data set [3]; against Insulin receptor; in data set [4]; in data set [20]; against Ephrin type-A receptor 2) was over 7 µM in each case. The inhibition in vivo at 100 mg/kg in the data set on Mus musculus [5] turned out to be 81%. For the same compound, the inhibition in vivo at 10 mg/kg with Mus musculus [6] was 17%. The figures for the concentration at 2 h in [7] and in [8] were 20 nM and under 10 nM, respectively. For the same compound, the outcome in data set [9], in [10], in data set [11], in [12], in [13] and in [14] was inactive. Moreover, the outcome in data set [15], in data set [16], in data set [17], in data set [18] and in data set [19] was inactive.

On to `CCCc1cc(N2CCC(O)CC2)nc2sc(C(N)=O)c(N)c12`, for which the IC50 (in data set [1]; in [2]; in data set [3]; against Insulin receptor; in data set [20]; against Ephrin type-A receptor 2) was over 7 µM in each case. The compound also gave an inhibition in vivo at 100 mg/kg with Mus musculus [5] of 98%. In the data set on Mus musculus [6], this compound gave an inhibition in vivo at 10 mg/kg of 42%. Moreover, the concentration at 2 h in data set [7] amounted to 15500 nM; in data set [8] it was 1600 nM. Also, the outcome in [9], in [10], in data set [11], in [12], in data set [13] and in data set [14] was inactive. The outcome in [15], in [16], in [17], in data set [18] and in data set [19] was inactive.
